Test [1] addresses T1, Dihydrofolate reductase (Rattus norvegicus, UniProt Q920D2).
T1 sequence (Q920D2 whole entry): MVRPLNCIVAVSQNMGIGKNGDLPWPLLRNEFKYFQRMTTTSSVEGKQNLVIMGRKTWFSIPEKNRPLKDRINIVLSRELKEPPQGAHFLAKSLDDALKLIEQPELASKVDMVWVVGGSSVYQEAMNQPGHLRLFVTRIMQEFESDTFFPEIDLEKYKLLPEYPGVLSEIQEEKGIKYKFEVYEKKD
The test can be described thus: (§1) Inhibition of rat liver dihydrofolate reductase.

Test [2] addresses T2, Dihydrofolate reductase (Pneumocystis carinii, UniProt P16184).
T2 sequence (P16184 whole entry): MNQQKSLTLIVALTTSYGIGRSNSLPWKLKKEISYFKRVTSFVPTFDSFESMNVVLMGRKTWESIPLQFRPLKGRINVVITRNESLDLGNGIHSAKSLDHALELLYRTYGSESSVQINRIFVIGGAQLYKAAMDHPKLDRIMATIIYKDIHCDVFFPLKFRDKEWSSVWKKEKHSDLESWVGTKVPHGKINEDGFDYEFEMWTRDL
The test is described as follows: (§2) Inhibition of Pneumocystis carinii dihydrofolate reductase.

For test [3], the target named is T3, Bifunctional dihydrofolate reductase-thymidylate synthase (Toxoplasma gondii, UniProt Q07422).
T3 sequence (Q07422 whole entry): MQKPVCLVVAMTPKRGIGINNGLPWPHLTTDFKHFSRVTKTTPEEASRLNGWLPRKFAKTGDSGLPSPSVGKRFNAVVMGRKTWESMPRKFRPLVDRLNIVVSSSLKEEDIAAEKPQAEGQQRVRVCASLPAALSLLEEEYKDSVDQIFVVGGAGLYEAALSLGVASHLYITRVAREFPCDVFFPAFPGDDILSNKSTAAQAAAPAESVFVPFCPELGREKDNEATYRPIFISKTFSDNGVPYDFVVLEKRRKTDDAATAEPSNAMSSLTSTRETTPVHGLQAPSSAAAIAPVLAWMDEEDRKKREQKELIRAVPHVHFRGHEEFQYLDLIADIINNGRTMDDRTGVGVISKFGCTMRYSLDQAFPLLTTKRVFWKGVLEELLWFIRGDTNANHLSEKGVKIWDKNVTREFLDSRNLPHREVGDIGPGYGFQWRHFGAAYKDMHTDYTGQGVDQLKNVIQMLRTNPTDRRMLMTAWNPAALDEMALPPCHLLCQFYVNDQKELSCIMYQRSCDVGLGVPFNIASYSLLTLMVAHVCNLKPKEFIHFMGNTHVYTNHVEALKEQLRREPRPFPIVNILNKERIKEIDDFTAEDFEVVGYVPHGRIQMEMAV
The test is described as follows: (§3) Inhibition of Toxoplasma gondii dihydrofolate reductase.

The target in test [4] is T1, Dihydrofolate reductase. The description is as §1. This is another data set of the same source.
The target in test [5] is T3, Bifunctional dihydrofolate reductase-thymidylate synthase. The test is described as §3. This is another data set of the same source.
Test [6] deals with T2, Dihydrofolate reductase. The test is described as §2. This is another data set of the same source.

By IC50 is commonly meant the concentration at which inhibition is half-maximal. Take `COc1cc(N(C)Cc2ccc3nc(N)nc(N)c3n2)cc(OC)c1OC`: the IC50 was 52 nM in test [1]; 120 nM in test [2]; 44 nM in test [3]; 52 nM in test [4]; 44 nM in test [5]; 120 nM in test [6].

In the case of `Cc1c(CN(C)c2ccccc2)cnc2nc(N)nc(N)c12`, the IC50 in test [1] is 18 nM; in test [2], 30 nM; in test [3] it was 6.3 nM; in test [4], 18 nM; in test [5], 6.3 nM; in test [6] it was 30 nM.

With `COc1cc(CCC2CNc3nc(N)nc(N)c3C2)cc(OC)c1OC` (centres undefined), the IC50 in test [1] is 2100 nM; in test [2] it was 7700 nM; in test [3], 1100 nM; in test [4] it was 2100 nM; in test [5], 1100 nM; in test [6], 7710 nM.

Take `COc1ccccc1NCc1cnc2nc(N)nc(N)c2c1C`: the IC50 in test [1] was 80.1 nM; in test [2], 68.9 nM; in test [3], 7.4 nM; in test [4], 80.1 nM; in test [5], 7.4 nM; in test [6], 68.9 nM.

`COc1cc(NCc2cnc3nc(N)nc(N)c3c2C)c(O)cc1-n1cccc1`: the IC50 in test [1] is 230 nM; in test [2] it was 350 nM; in test [3], 33 nM; in test [4] it was 230 nM; in test [5] it was 33 nM; in test [6], 350 nM.

With `Cc1c(CN(C)c2ccc(Cl)cc2)cnc2nc(N)nc(N)c12`, the 50% inhibitory concentration (IC50) in test [1] was 170 nM; in test [2], 80 nM; in test [3], 1.7 nM; in test [4], 170 nM; in test [5], 1.7 nM; in test [6], 80 nM.

On to `Nc1nc(N)c2c(n1)CCC(CNc1cccc(Cl)c1)C2` (centres undefined), for which the IC50 in test [1] is 128 nM; in test [2] it was 940 nM; in test [3], 78 nM; in test [4], 128 nM; in test [5], 78 nM; in test [6], 940 nM.

Turning to `COc1ccc(CNc2cnc3nc(N)nc(N)c3c2)c(OC)c1OC`, the IC50 was 3300 nM in test [1]; 14100 nM in test [2]; 350 nM in test [3]; 3300 nM in test [4]; 350 nM in test [5]; 14100 nM in test [6].

On to `COc1cc(OC)c(CN(C)c2ccc3nc(N)nc(N)c3c2)c(OC)c1`, for which the IC50 in test [1] was 22700 nM; in test [2], 116000 nM; in test [3], 950 nM; in test [4], 22700 nM; in test [5], 950 nM; in test [6] it was 116000 nM.

(Values after ChEMBL document CHEMBL1145190, “CoMFA and CoMSIA analyses of Pneumocystis carinii dihydrofolate reductase, Toxoplasma gondii dihydrofolate reductase, and rat liver dihydrofolate reductase” (J Med Chem, 2005).)
